Measured values taken from US20260234165A1, “MACROCYCLIC COMPOUNDS, PREPARATION METHOD THEREFOR, AND USE THEREOF” (GENFLEET THERAPEUTICS (SHANGHAI) INC., priority 2004, published 2026).

tested on: p-ERK in NCI-H441 cells (KRAS G12V mutation); experiment: Cell p-ERK assay (HTRF) in NCI-H441 cells; format: cell-based, human; details: Homo sapiens, NCI-H441, 3 h, NCI-H441 cells, 3 h compound incubation, HTRF p-ERK T202/Y204; read-out: H441 p-ERK IC50
Procedure: AsPC-1 cells were purchased from ATCC, Cat. No. CRL-1682: NCI-H441 cells were purchased from ATCC, Cat. No. HTB-174: RPMI-1640 medium was purchased from Gibco, Cat. No. I1875-093: FBS was purchased from Gibco, Cat. No. 10099-141C: penicillin/streptomycin double-antibiotic solution (PS) was purchased from Gibco, Cat. No. 15140-122: trypsin (containing EDTA) was purchased from Gibco, Cat. No. 25200-072; DMSO was purchased from VWRAMRESCO, Cat. No. 0231-500ML; 96-well cell culture plates were purchased from Corning, Cat. No. 3599: white-bottomed, opaque 96-well plates were purchased from Cisbio, Cat. No. 66PL96025; Advance ERK phospho-T202/Y204 kit was purchased from Cisbio, Cat. No. 64AERPEH; cell counter was purchased from CHEMOMETEC, model: NC-200; microplate reader was purchased from PerkinElmer, model: EnVision.
AsPC-1, a human pancreatic cancer cell strain endogenously containing a KRAS^G12D mutation, was cultured in a complete medium containing RPMI-1640+10% FBS+1% PS. NCI-H441, a human non-small cell lung cancer cell strain endogenously containing a KRAS^G12V mutation, was cultured in a complete medium containing RPMI-1640+10% FBS+1% PS.
The cells were digested with trypsin (containing EDTA), collected in their corresponding complete media, and counted. The density of the cell suspensions was adjusted with their corresponding complete media, and 10000 AsPC-1 cells or 20000 NCI-H441 cells per well were seeded into a 96-well cell culture plate, with the volume of the medium in each well being 80 μL.
The cell culture plate was incubated in an incubator at 37° C. with 5% CO2 overnight. A series of 3.16-fold gradient dilutions of a 1000- compound stock solution were prepared with DMSO, and then diluted 200-fold with the complete medium described above to give 5′ compound stock solutions. On the day after cell seeding, 20 μL of the 5× compound stock solution was added to each cell culture well. As a result, the final concentration of the compound in the cell culture well became 1×, and the DMSO content in the well was 0.1%. In addition to the compound-treated wells described above, cell-containing DMSO control wells were also set. A complete medium containing 0.5% DMSO was added at 20 μL/well. After the mixture was well mixed, the culture plate was incubated in the incubator at 37° C. with 5% CO2 for another 3 h. The medium was then removed from the culture wells, and 50 μL of cell lysis buffer (from Advance ERK phospho-T202,Y204 kit) was added to each well. The mixture was well mixed and incubated for 30 min. Then, 16 μL of the mixture was transferred to a white-bottomed, opaque 96-well assay plate, and separately, 16 μL of cell lysis buffer was added to additional wells (serving as blank wells) in the assay plate. After the transfer was completed, 4 μL of p-ERK HTRF antibody mixture (from Advance ERK phospho-T202/Y204 kit) was added to each well of the assay plate, followed by a 4-hour incubation. The HTRF signal values (RLU) were then measured using a microplate reader, and the inhibition rate of the compound against p-ERK levels was calculated as follows: IR (%)=(RLUDMSO−RLUcompound)/(RLUDMSO−RLUblank)×100%, where RLUDMSO is the average HTRF signal value from the DMSO control well samples, RLUblank is the average HTRF signal value from the blank well samples, and RLUcompound is the HTRF signal value from the compound-treated well samples. Using an XLfit software, the IR (%) values were plotted against the logarithm of the compound concentrations, and the dose-response curves were fitted using the four-parameter method to calculate the IC50 values.

SMILES | IC50
CCn1c(-c2cc(C#CCN3CCCOCC3)cnc2[C@H](C)OC)c2c3cc(ccc31)-c1csc(n1)C[C@H](NC(=O)CC(C)(C)C)C(=O)N1CCC[C@H](N1)C(=O)OCC(C)(C)C2 (atropisomer, axis not shown; (Ra)) [Compound Z798, N-((6^3S,4S,Z)—(Ra)-1^2-(5-(3-(1,4-oxazepan-4-yl)propyn-1-yl)-2-((S)-1-methoxyethyl)pyridin-3-yl)-1^1ethyl-10,10-dimethyl-5,7-dioxo-6^1,6^2,6^3,6^4,6^5,6^6-hexahydro-1^1H-8-oxa-2(4,2)-thiazola-1(5,3)-indola-6(1,3)-pyridazinacycloundecaphane-4-yl)-3,3-dimethylbutanamide] | 3.89 nM
CCn1c(-c2cc(C#CCN3CCN(C(C)=O)CC3)cnc2[C@H](C)OC)c2c3cc(ccc31)-c1csc(n1)C[C@H](Nc1nnc3cc(C)ccn13)C(=O)N1CCC[C@H](N1)C(=O)OCC(C)(C)C2 (atropisomer, axis not shown; (Ra)) [Compound Z981] | 2.17 nM
CCn1c(-c2cc(C#CCN3CCN(C)S(=O)(=O)CC3)cnc2[C@H](C)OC)c2c3cc(ccc31)-c1csc(n1)C[C@H](Nc1nnc3cc(C)ccn13)C(=O)N1CCC[C@H](N1)C(=O)OCC(C)(C)C2 (atropisomer, axis not shown; (Ra)) [Compound Z1027, (6^3S,4S,Z)-1^1-ethyl-1^2-(Ra)-(2-((S)-1-methoxyethyl)-5-(3-(2-methyl-1,1-dioxido-1,2,5-thiadiazepan-5-yl)prop-1-yn-1-yl)pyridin-3-yl)-10,10-dimethyl-4-((7-methyl-[1,2,4]triazolo[4,3-a]pyridin-3-yl)amino)-6^1,6^2,6^3,6^4,6^5,6^6-hexahydro-1^1H-8-oxa-2(4,2)-thiazola-1(5,3)-indola-6(1,3)-pyridazinacycloundecaphane-5,7-dione] | 1.54 nM
CCn1c(-c2cc(N3CCN(CCS(C)(=O)=O)CC3)cnc2[C@H](C)OC)c2c3cc(ccc31)-c1csc(n1)C[C@H](NC(=O)[C@H]1[C@H](C)[C@@H]1C)C(=O)N1CCC[C@H](N1)C(=O)OCC1(CC1)C2 (atropisomer, axis not shown; (Sa)) [Compound Z377, (1r,2R,3S)—N-((3′S,4′S,Z)-1′-ethyl-(Sa)-2′-(2-((S)-1-methoxyethyl)-5-(4-(2-(methylsulfonyl)ethyl)piperazin-1-yl)pyridin-3-yl)-5′,7′-dioxospiro[cyclopropane-1,10′-8-oxa-2(4,2)-thiazola-1(5,3)-indola-6(1,3)-pyridazinacycloundecaphan]-4′-yl)-2,3-dimethylcyclopropane-1-carboxamide] | 87.8 nM
CCn1c(-c2cc(C#CCN3CCCOCC3)cnc2[C@H](C)OC)c2c3cc(ccc31)-c1csc(n1)C[C@H](NC(=O)[C@H]1[C@H](C)[C@@H]1C)C(=O)N1CCC[C@H](N1)C(=O)OCC(C)(C)C2 (atropisomer, axis not shown; (Sa)) [Compound Z547, (1r,2R,3S)—N-((6^3S,4S,Z)—(Sa)-1′-(5-(3-(1,4-oxazepan-4-yl)prop-1-yn-1-yl)-2-((S)-1-methoxyethyl)pyridin-3-yl)-1′-ethyl-10,10-dimethyl-5,7-dioxo-6^1,6^2,6^3,6^4,6^5,6^6-hexahydro-1^1H-8-oxa-2(4,2)-thiazola-1(5,3)-indola-6(1,3)-pyridazinacycloundecaphane-4-yl)-2,3-dimethylcyclopropane-1-carboxamide] | 78.1 nM
CCn1c(-c2cc(C#CCN3CCCOCC3)cnc2[C@H](C)OC)c2c3cc(ccc31)-c1csc(n1)C[C@H](NC(=O)[C@H](C(C)C)N(C)S(C)(=O)=NC)C(=O)N1CCC[C@H](N1)C(=O)OCC(C)(C)C2 (mixture of isomers) [Compound Z912, (2S)—N-((6^3S,4S,Z)-1^2-(5-(3-(1,4-oxazepan-4-yl)prop-1-yn-1-yl)-2-((5)-1-methoxyethyl)pyridin-3-yl)-1^1-ethyl-10,10-dimethyl-5,7-dioxo-6^1,6^2,6^3,6^4,6^5,6^6-hexahydro-1^1H-8-oxa-2(4.2)-thiazola-1(5,3)-indola-6(1,3)-pyridazinacycloundecaphane-4-yl)-2-(N,N-dimethylmethylsulfonimidoyl)-3-methylbutanamide] | 1.83 nM
CCn1c(-c2cc(C3(C(=O)N4CCN(C)CC4)CC3)cnc2[C@H](C)OC)c2c3cc(ccc31)-c1csc(n1)C[C@H](NC(=O)[C@H]1[C@H](C)[C@@H]1C)C(=O)N1CCC[C@H](N1)C(=O)OCC1(CC1)C2 [Compound Z347, (1r,2R,3b)-N-((3′S,4′S,Z)-1′-ethyl-2′-(2-(1-methoxyethyl)-5-(1-(4-methylpiperazine-1-carbonyl)cyclopropyl)pyridin-3-yl)-5′,7′-dioxospiro[cyclopropane-1,10′-8-oxa-2(4,2)-thiazola-1(5,3)-indola-6(1,3)-pyridazinacycloundecaphan]-4-yl)-2,3-dimethylcyclopropane-1-carboxamide] | 152 nM
CCn1c(-c2cc(N3CCN(c4ccc(C)cc4)CC3)cnc2[C@H](C)OC)c2c3cc(ccc31)-c1csc(n1)C[C@H](NC(=O)[C@H]1[C@H](C)[C@@H]1C)C(=O)N1CCC[C@H](N1)C(=O)OCC1(CC1)C2 [Compound Z461, (1r,2R,3S)—N-((3′S,4′S,Z)-1′-ethyl-2′-(2-((S)-1-methoxyethyl)-5-(4-(p-tolyl)piperazin-1-yl)pyridin-3-yl)-5′,7′-dioxospiro[cyclopropane-1,10′-8-oxa-2(4,2)-thiazola-1(5,3)-indola-6(1,3)-pyridazinacycloundecaphan]-4′-yl)-2,3-dimethylcyclopropane-1-carboxamide] | 93 nM

same assay, conditions: NCI-H441 cells, 3 h compound incubation, HTRF p-ERK T202/Y204; read-out: H441 p-ERK IC50

SMILES | IC50
CCn1c(-c2cc(C#CCN3CC4CCC(C3)N4C(C)=O)cnc2[C@H](C)OC)c2c3cc(ccc31)-c1csc(n1)C[C@H](Nc1nnc3cc(C)ccn13)C(=O)N1CCC[C@H](N1)C(=O)OCC(C)(C)C2 (atropisomer, axis not shown; (Ra)) [Compound Z1014, (6^3S,4S,Z)-1^2-(5-(3-(8-acetyl-3,8-diazabicyclo[3.2.1]octan-3-yl)prop-1-yn-1-yl)-(Ra)-2-((S)-1-methoxyethyl)pyridin-3-yl)-1^1-ethyl-10,10-dimethyl-4-((7-methyl-[1,2,4]triazolo[4,3-a]pyridin-3-yl)amino)-6^1,6^2,6^3,6^4,6^5,6^6-hexahydro-1^1H-8-oxa-2(4,2)-thiazola-1(5,3)-indola-6(1,3)-pyridazinacycloundecaphane-5,7-dione] | 3.35 nM
CCn1c(-c2cc(C#CCN3CCCOCC3)cnc2[C@H](C)OC)c2c3cc(ccc31)-c1csc(n1)C[C@H](Nc1nnc3cc(Br)ccn13)C(=O)N1CCC[C@H](N1)C(=O)OCC(C)(C)C2 [Compound Z960, (6-S,4S,Z)—(R4)-1^2-(5-(3-(1,4-oxazepan-4-yl)prop-1-yn-1-yl)-2-((S)-1-methoxyethyl)pyridin-3-yl)-4-((7-bromo-[1,2,4]triazolo[4,3-a]pyridin-3-yl)amino)-1^1-ethyl-10,10-dimethyl-6^1,6^2,6^3,6^4,6^5,6^6-hexahydro-1^1H-8-oxa-2(4,2)-thiazola-1(5,3)-indola-6(1,3)-pyridazinacycloundecaphane-5,7-dione] | 5.46 nM
